Literature values in US20220240500A1, “Cryopreservation compositions and methods involving nanowarming” (REGENTS OF THE UNIVERSITY OF MINNESOTA, priority 2016, published 2022).

Tested on: zebrafish embryos
Conditions: 2.3 M injected; previous studies

## CC(O)CO (stereo not shown) [Propylene Glycol]
  survival from injection into the zebrafish embryo: high survival
